Structures can show the parent of a compound that is named as a salt.
Tests used:
[1] = target: T1, 5HT6-human recombinant receptor (Homo sapiens, UniProt P50406); assay: Binding to serotonin receptor 5HT6 ([3H]-LSD displacement, HEK-293 cell membranes); settings: for inhibition at 1 µM: read-out: % Inhibition 10^−6 M
T1 construct: purchased Receptor Biology; host or cells: HEK-293 cell membranes
Protocol: Binding to Serotonin Receptor 5HT6
The respective part of the literature description is hereby incorporated by reference and forms part of the disclosure. […] Tests were made in triplicate.
The binding of the inventively used sulphonamide derivatives of general formula (I) was determined as described above.

T1 sequence (P50406 whole entry): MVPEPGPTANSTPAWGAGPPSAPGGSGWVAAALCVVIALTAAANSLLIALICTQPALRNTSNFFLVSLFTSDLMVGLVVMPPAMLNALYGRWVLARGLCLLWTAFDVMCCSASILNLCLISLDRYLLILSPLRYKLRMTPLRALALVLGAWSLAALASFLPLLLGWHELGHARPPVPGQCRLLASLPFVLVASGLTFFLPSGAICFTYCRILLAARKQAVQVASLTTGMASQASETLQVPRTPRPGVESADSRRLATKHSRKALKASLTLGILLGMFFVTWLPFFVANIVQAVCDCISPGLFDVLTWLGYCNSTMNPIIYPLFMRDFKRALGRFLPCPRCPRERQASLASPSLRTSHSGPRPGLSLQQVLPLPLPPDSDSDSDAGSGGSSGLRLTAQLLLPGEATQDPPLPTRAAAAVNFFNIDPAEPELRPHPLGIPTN

SMILES	Ki [1] [nM]	inhibition at 1 µM [1] [%]	melting point
CCN(CC)CCc1c[nH]c2ccc(NS(=O)(=O)c3sc4ccc(Cl)cc4c3C)cc12 [Example 1, N-[3-(2-diethylaminoethyl)-1H-indol-5-yl]-5-chloro-3-methylbenzo[b]thiophene-2-sulphonamide]	0.28	98.1 ± 4	170 to 173 °C
Cc1c(S(=O)(=O)Nc2ccc3[nH]cc(CCN(C)C)c3c2)sc2ccc(Cl)cc12 [Example 7, N-[3-(2-dimethylaminoethyl)-1H-indol-5-yl]-5-chloro-3-methylbenzo[b]thiophene-2-sulphonamide]	0.13	103 ± 7.9	226 to 227 °C
CCN(CC)CCc1c[nH]c2ccc(NS(=O)(=O)c3cccc4ccccc34)cc12 [Example 3, Hydrochloride N-[3-(2-diethylaminoethyl)-1H-indol-5-yl]naphthalene-1-sulphonamide]	–	96.6 ± 5.2	–
CN(C)CCc1c[nH]c2ccc(NS(=O)(=O)c3cccc4ccccc34)cc12 [Example 8, N-[3-(2-dimethylaminoethyl)-1H-indol-5-yl]naphthalene-1-sulphonamide]	0.76	94.5 ± 7	203 to 205 °C
CCN(CC)CCc1c[nH]c2ccc(NS(=O)(=O)c3ccc4ccccc4c3)cc12 [Example 17, N-[3-(2-diethylaminoethyl)-1H-indol-5-yl]naphthalene-2-sulphonamide]	–	102	172 to 173 °C
CN(C)CCc1c[nH]c2ccc(NS(=O)(=O)c3c(Cl)nc4sccn34)cc12 [Example 9, N-[3-(2-dimethylamino-ethyl)-1H-indol-5-yl]-6-chloroimidazo[2,1-b]thiazol-5-sulphonamide]	–	96.8 ± 3.7	–
CCN(CC)CCc1c[nH]c2ccc(NS(=O)(=O)c3cccc4ccccc34)cc12 (as salt: HCl) [Example 3, Hydrochloride N-[3-(2-diethylaminoethyl)-1H-indol-5-yl]naphthalene-1-sulphonamide]	–	–	255 to 257 °C
CN1CCC(c2c[nH]c3ccc(NS(=O)(=O)c4cccc5cccnc45)cc23)CC1 [Example 16, N-[3-(1-methylpiperidin-4-yl)-1H-indol-5-yl]quinoline-8-sulphonamide]	–	–	280 °C (dec.)
Cc1c(S(=O)(=O)Nc2ccc3[nH]cc(C4CCN(C)CC4)c3c2)sc2ccc(Cl)cc12 [Example 11, N-[3-(1-methylpiperidin-4-yl)-1H-indol-5-yl]-5-chloro-3-methylbenzo[b]thiophene-2-sulphonamide hydrochloride]	0.98	101	–
CN1CCC(c2c[nH]c3ccc(NS(=O)(=O)c4cccc5ccccc45)cc23)CC1 (as salt: HCl) [Example 13, N-[3-(1-methylpiperidin-4-yl)-1H-indol-5-yl]naphthalene-1-sulphonamide hydrochloride]	–	–	212 °C (dec.)
CN1CCC(c2c[nH]c3ccc(NS(=O)(=O)c4cccc5ccccc45)cc23)CC1 [Example 13, N-[3-(1-methylpiperidin-4-yl)-1H-indol-5-yl]naphthalene-1-sulphonamide hydrochloride]	–	98.3	–
CCN(CC)CCc1c[nH]c2ccc(NS(=O)(=O)c3ccc(Cl)s3)cc12 [Example 6, N-[3-(2-diethylaminoethyl)-1H-indol-5-yl]-5-chlorothiophene-2-sulphonamide]	8.7	97.6 ± 1.8	180 to 181 °C
CCN(CC)CCc1c[nH]c2ccc(NS(=O)(=O)c3ccc(-c4ccccc4)cc3)cc12 [Example 5, N-[3-(2-diethylaminoethyl)-1H-indol-5-yl]-4-phenylbenzenesulphonamide]	–	101.2 ± 0.1	161 to 163 °C
CN1CCC(c2c[nH]c3ccc(NS(=O)(=O)c4ccc(-c5ccccc5)cc4)cc23)CC1 [Example 15, N-[3-(1-methylpiperidin-4-yl)-1H-indol-5-yl]-4-phenylbenzenesulphonamide]	–	–	247 to 248 °C
CN1CCC(c2c[nH]c3ccc(NS(=O)(=O)c4ccc(Cl)s4)cc23)CC1 [Example 14, N-[3-(1-methylpiperidin-4-yl)-1H-indol-5-yl]-5-chlorothiophene-2-sulphonamide]	–	–	284 °C (dec.)
CCN(CC)CCc1c[nH]c2ccc(NS(=O)(=O)c3cc(Cl)cc(Cl)c3)cc12 [Example 4, N-[3-(2-diethylaminoethyl)-1H-indol-5-yl]-3,5-dichlorobenzenesulphonamide]	–	96.2 ± 0.6	168 to 170 °C
